Measured values as given in the NIST ThermoML archive (doi:10.1021/je0502501).
Numbers after ± are expanded uncertainties.

Test: wn = mass fraction of the nth substance listed
Conditions: 313 K, 101 kPa, Liquid, Vibrating tube method

mass density (w2 = 6.7e-05): 1358.7 ± 3.6 kg/m3 | mass density (w2 = 0.0015): 1357.6 ± 3.6 kg/m3 | mass density (w2 = 0.0089): 1347.3 ± 3.6 kg/m3 | mass density (w2 = 0.016): 1335.5 ± 3.5 kg/m3
Structure (SMILES): CCCCn1cc[n+](C)c1.F[P-](F)(F)(F)(F)F [1-butyl-3-methylimidazolium hexafluorophosphate] + O
